# Key:
# Assay in all cases: relative viability (nuclei count vs DMSO), 5 days (fraction); higher = more cells survive
# Quizartinib + Trametinib = compound: CC(C)(C)c1cc(NC(=O)Nc2ccc(-c3cn4c(n3)sc3cc(OCCN5CCOCC5)ccc34)cc2)no1 [Quizartinib] + CC(=O)Nc1cccc(-n2c(=O)n(C3CC3)c(=O)c3c(Nc4ccc(I)cc4F)n(C)c(=O)c(C)c32)c1 [Trametinib] (partner 0.02 µM)
# Summary of the method: (§1)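 Values are medians from duplicate plates. Each reflects relative viability, defined as the nuclei count of treated wells over that of vehicle wells. Lung cancer cell lines in 1536-well plates were pin-tool dosed one day after seeding with one drug alone or with a fixed anchor-drug dose plus five library-drug doses (not always all listed) in √10 steps, then fixed, stained and imaged at 4× after 5 days.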
# Quizartinib + Pictilisib = compound: CC(C)(C)c1cc(NC(=O)Nc2ccc(-c3cn4c(n3)sc3cc(OCCN5CCOCC5)ccc34)cc2)no1 [Quizartinib] + CS(=O)(=O)N1CCN(Cc2cc3nc(-c4cccc5[nH]ncc45)nc(N4CCOCC4)c3s2)CC1 [Pictilisib] (partner 1 µM)
# Summary of the method: as §1
# Quizartinib + AZD7762 = compound: CC(C)(C)c1cc(NC(=O)Nc2ccc(-c3cn4c(n3)sc3cc(OCCN5CCOCC5)ccc34)cc2)no1 [Quizartinib] + NC(=O)Nc1cc(-c2cccc(F)c2)sc1C(=O)N[C@H]1CCCNC1 [AZD7762] (partner 0.2 µM)
# Summary of the method: as §1
# YM155 + Phenformin = compound: COCC[n+]1c2c(n(Cc3cnccn3)c1C)C(=O)c1ccccc1C2=O [YM155] + N=C(N)NC(=N)NCCc1ccccc1 [Phenformin] (partner 250 µM)
# Summary of the method: as §1
Cell Line,relative viability (Quizartinib + Trametinib; first compound 0.001 µM),relative viability (Quizartinib + Trametinib; first compound 0.003162 µM),relative viability (Quizartinib + Trametinib; first compound 0.03162 µM),relative viability (Quizartinib + Trametinib; first compound 0.1 µM),relative viability (Quizartinib + Pictilisib; first compound 0.001 µM),relative viability (Quizartinib + Pictilisib; first compound 0.003162 µM),relative viability (Quizartinib + Pictilisib; first compound 0.01 µM),relative viability (Quizartinib + Pictilisib; first compound 0.03162 µM),relative viability (Quizartinib + Pictilisib; first compound 0.1 µM),relative viability (Quizartinib + AZD7762; first compound 0.001 µM),relative viability (Quizartinib + AZD7762; first compound 0.003162 µM),relative viability (Quizartinib + AZD7762; first compound 0.03162 µM),relative viability (Quizartinib + AZD7762; first compound 0.1 µM),relative viability (YM155 + Phenformin; first compound 0.002 µM),relative viability (YM155 + Phenformin; first compound 0.006325 µM),relative viability (YM155 + Phenformin; first compound 0.02 µM),relative viability (YM155 + Phenformin; first compound 0.06325 µM),relative viability (Quizartinib + Trametinib; first compound 0.01 µM),relative viability (Quizartinib + AZD7762; first compound 0.01 µM)
HCC-827,0.535,0.531,0.509,0.572,0.93,1.01,1.14,0.983,0.908,0.344,0.196,0.177,0.247,0.419,0.404,0.375,0.473,,
HOP-62,0.33,0.367,0.383,0.304,0.377,0.7,0.692,0.831,0.835,0.639,0.529,0.688,0.463,0.566,0.648,0.658,0.6,0.399,0.554
IA-LM,,,,,0.356,0.299,0.397,0.231,0.342,,,,,,,,,,
LC-2-ad,0.809,0.92,0.883,0.624,0.398,0.516,0.351,0.323,0.276,0.75,0.835,0.883,0.835,0.528,0.616,0.581,0.535,0.899,0.91
LCLC-97TM1,0.158,0.186,0.216,0.184,,0.144,0.223,0.148,0.218,0.197,0.334,0.179,0.361,0.387,0.432,0.407,0.447,0.191,0.325
LCLC-103H,0.658,0.645,0.712,0.694,0.535,0.733,0.591,0.547,0.546,0.664,0.701,0.866,0.829,0.359,0.314,0.347,0.323,0.664,0.746
LK-2,0.796,0.671,0.765,0.789,0.594,0.474,0.826,0.526,0.55,0.456,0.405,0.244,0.293,0.356,0.571,0.447,0.379,0.801,0.474
NCI-H520,,0.465,0.637,0.486,0.306,0.273,0.307,0.287,0.245,,,,,0.58,0.535,0.636,0.604,0.673,
NCI-H522,0.688,0.741,0.53,0.727,,,,,,0.849,0.775,0.871,0.778,0.67,0.604,0.628,0.659,0.796,0.675
NCI-H661,0.575,0.533,0.552,0.525,0.425,0.388,0.364,,0.467,,,,,0.257,0.245,0.264,0.288,0.554,

# — the supplement of paper PMC10307832
